Data published in patent US9856221B2, “Salt of ivabradine and process for the preparation thereof” (LES LABORATOIRES SERVIER, priority 2014, dated 2018).
Where “and” joins values, the source holds several entries; their conditions need not be identical. Equal values may be shown once. Where a name gives a salt, the structure may show the parent alone. Each block holds one molecule with its values, some of them ahead of it.

Tests used:
[1] = Dissolution test (paddle apparatus, Ph. Eur. 2.9.3), release of active ingredient; type: physicochemical; conditions: for % of active ingredient released (individual units B1-B6) / % of active ingredient released, Mean: 0.01 N HCl pH~2.1, 37°C, paddle 50 rpm; for % of active ingredient released (individual units B1-B6): 500 mL; for % of active ingredient released, Mean: mean of 6 units
Protocol: Dissolution Test Operating Conditions for Dissolution Paddle dissolution apparatus described in the European pharmacopoeia (2.9.3) Dissolution medium: 0.01 N hydrochloric acid (pH˜2.1) degassed Temperature of the medium: 37° C.±0.5° C. Volume of the medium: 500 mL±5 mL Speed of rotation of the blades: 50 rpm±2 rpm Standard sampling time: 0, 15, 30 and 45 min Added sampling times: 1, 2, 4, 6, 8, 12 and 16 h Volume removed: 1 mL Replacement of the volume removed: no Number of units tested: 6 Number of units per flask: 1

[2] = In vitro release of ivabradine hydrochloride (immediate-release formulation); type: physicochemical

- ivabradine hemipamoate released ([1]; after approximately 6 hours, in vitro dissolution test): 80%
- Derivative (of % of active ingredient released over time) ([1]; time 0 hour): 0 %/min
- % of active ingredient released (individual units B1-B6) ([1]; time 0 hour): 0%
- % of active ingredient released, Mean ([1]; time 0 hour): 0%
- Derivative (of % of active ingredient released over time) ([1]; time 0.25 hour): 0.79 %/min
- % of active ingredient released (individual units B1-B6) ([1]; time 0.25 hour): 12% (3×) and 11% (2×) and 13%
- % of active ingredient released, Mean ([1]; time 0.25 hour): 12%
- Derivative (of % of active ingredient released over time) ([1]; time 0.5 hour): 0.4 %/min
- % of active ingredient released (individual units B1-B6) ([1]; time 0.5 hour): 18% (2×) and 17% (2×) and 20% and 16%
- % of active ingredient released, Mean ([1]; time 0.5 hour): 18%
- Derivative (of % of active ingredient released over time) ([1]; time 0.75 hour): 0.26 %/min
- % of active ingredient released (individual units B1-B6) ([1]; time 0.75 hour): 21% (2×) and 22% (2×) and 24% and 20%
- % of active ingredient released, Mean ([1]; time 0.75 hour): 22%
- Derivative (of % of active ingredient released over time) ([1]; time 1 hour): 0.2 %/min
- % of active ingredient released (individual units B1-B6) ([1]; time 1 hour): 24% and 25% and 26% and 28% and 23% (2×)
- % of active ingredient released, Mean ([1]; time 1 hour): 25%
- Derivative (of % of active ingredient released over time) ([1]; time 2 hour): 0.23 %/min
- % of active ingredient released (individual units B1-B6) ([1]; time 2 hour): 38% (2×) and 40% (2×) and 43% and 34%
- % of active ingredient released, Mean ([1]; time 2 hour): 39%
- Derivative (of % of active ingredient released over time) ([1]; time 4 hour): 0.25 %/min
- % of active ingredient released (individual units B1-B6) ([1]; time 4 hour): 64% and 70% (2×) and 71% and 72% and 66%
- % of active ingredient released, Mean ([1]; time 4 hour): 69%
- Derivative (of % of active ingredient released over time) ([1]; time 6 hour): 0.15 %/min
- % of active ingredient released, Mean ([1]; time 6 hour): 86%
- Derivative (of % of active ingredient released over time) ([1]; time 8 hour): 0.07 %/min
- % of active ingredient released, Mean ([1]; time 8 hour): 95%
- Derivative (of % of active ingredient released over time) ([1]; time 12 hour): 0.03 %/min
- % of active ingredient released, Mean ([1]; time 12 hour): 104%
- Derivative (of % of active ingredient released over time) ([1]; time 16 hour): 0.01 %/min
- % of active ingredient released, Mean ([1]; time 16 hour): 107%
Compound: COc1cc2c(cc1OC)CC(=O)N(CCCN(C)C[C@H]1Cc3cc(OC)c(OC)cc31)CC2 [ivabradine hemipamoate]
- % of active ingredient released (individual units B1-B6) ([1]; time 6 hour): 81% and 89% and 88% and 85% and 91% and 84%
- % of active ingredient released (individual units B1-B6) ([1]; time 8 hour): 89% and 99% and 96% and 94% and 101% and 93%
- % of active ingredient released (individual units B1-B6) ([1]; time 12 hour): 96% and 109% and 102% and 103% and 110% and 101%
- % of active ingredient released (individual units B1-B6) ([1]; time 16 hour): 98% and 114% (2×) and 104% and 106% and 105%

- time in which all the salt is released in vitro [2]: 15 min
Compound: COc1cc2c(cc1OC)CC(=O)N(CCCN(C)C[C@H]1Cc3cc(OC)c(OC)cc31)CC2 [ivabradine hydrochloride, 3-{3-[{[(7S)-3,4-dimethoxybicyclo[4.2.0]octa-1,3,5-trien-7-yl]methyl}-(methyl)amino]propyl}-7,8-dimethoxy-1,3,4,5-tetrahydro-2H-3-benzazepin-2-one]
